Assay [1] has as its system PC-3 Cells. As to the kind of experiment: Cell growth inhibition, Cell-Titer-Glo, 96 hours. It counts as cell-based.
Assay [2] deals with K562 Cells. Nature of the assay: Cell growth inhibition, Cell-Titer-Glo, 96 hours. It counts as cell-based.
Assay [3] addresses Pim-1 kinase (Homo sapiens, UniProt P11309). As to the kind of experiment: Promega Kinase-Glo Pim-1 kinase inhibition assay.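 Also: in vitro Pim-1 reaction run 2 h at 30 °C, then leftover ATP measured by luciferase luminescence, where signal falls as kinase activity rises.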 It counts as biochemical. On the technique in general: Kinase-Glo measures the ATP left after a reaction by luminescence.
[4] abbreviates: Table IX (results), read-out: IC50 (K562).
[5] abbreviates: Table VIII (results), values in uM, read-out: IC50(Kinase).
Setting [6] is: Homo sapiens, Table IX (results), read-out: IC50 (PC-3).
Where [7] appears, read: Homo sapiens, K562, Table IX (results), read-out: IC50 (K562).
[8] abbreviates: Table VIII (results), values in nM, read-out: IC50(Kinase).
Where [9] appears, read: Homo sapiens, read-out: IC50 PC-3 Cells (inhibit cell growth to 50% of untreated), Table VI.
Where [10] appears, read: Homo sapiens, K562, read-out: IC50 K562 Cells (inhibit cell growth to 50% of untreated), Table VI.
[11] abbreviates: Table X, Kinase-Glo, read-out: IC50 on Pim1.

This passage reports IC50 results from US20120058997A1, “IMIDAZO[1,2-B]PYRIDAZINE AND PYRAZOLO[1,5-A]PYRIMIDINE DERIVATIVES AND THEIR USE AS PROTEIN KINASE INHIBITORS” (SuperGen, Inc., priority 2006, published 2012).

Structures are written as SMILES. Values joined by “and” are separate entries in the source; they are usually repeats but may differ in a detail not shown here. Equal entries are not always repeated. Where two headings read alike, the source gives them in different places. Where only a bound is given, the exact number is not on record here.

Broadly, the IC50 is the point on the concentration scale where inhibition reaches its midpoint.
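For IC50 (K562) in this document: luminescent ATP signal as an index of viable cell number, drug-treated versus cells given an equal volume of DMSO vehicle.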
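For IC50 (PC-3) in this document: luciferase luminescence reflecting cellular ATP, used as a proxy for cell number, with compound-treated cells compared against DMSO vehicle control wells.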

Chain of Pim-1 kinase (P11309 whole entry): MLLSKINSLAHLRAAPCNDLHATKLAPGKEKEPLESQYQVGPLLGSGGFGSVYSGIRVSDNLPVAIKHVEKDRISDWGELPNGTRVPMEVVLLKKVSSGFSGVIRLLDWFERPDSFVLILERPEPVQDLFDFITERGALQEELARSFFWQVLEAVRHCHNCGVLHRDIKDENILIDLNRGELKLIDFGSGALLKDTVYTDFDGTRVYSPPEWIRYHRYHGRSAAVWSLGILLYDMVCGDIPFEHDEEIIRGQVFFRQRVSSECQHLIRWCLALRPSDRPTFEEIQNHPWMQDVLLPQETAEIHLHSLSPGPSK

For `CN(C)c1cccc(-c2cnc3ccc(NCCCCO)nn23)c1` [Compound 7-4, 12-(3-(3-(dimethylamino)phenyl)imidazo[1,2-b]pyridazin-6-ylamino)butan-1-ol], the IC50 in assay [1] (Table IX (results), read-out: IC50 (PC-3)) was found to be 54.6 µM; in assay [2] (setting [4]) it was 13.6 µM; in assay [3] (setting [5]), 1.81 µM.

`Fc1cccc(-c2ccc3ncc(-c4cccc(F)c4)n3n2)c1` [Compound 7-9]: the IC50 is 21.2 µM in assay [1] (setting [6]), 6.76 µM in assay [2] (setting [7]) and 86.6 µM in assay [3] (setting [5]).

`Cc1cc2ncc(-c3cccc(OC(F)(F)F)c3)n2nc1OCC1CCN(C)CC1` [Compound 7-34, 7-methyl-6-((1-methylpiperidin-4-yl)methoxy)-3-(3(trifluoromethoxy)phenyl) imidazo[1,2-b]pyridazine]: the results for the IC50 in assay [1] (setting [6]), in assay [2] (setting [7]) and in assay [3] (setting [8]) were 7.21 µM, 1.73 µM and 0.272 µM, respectively.

`Cc1ccc(S(=O)(=O)Nc2ccc(Nc3ccn4ncc(-c5cccc(N)c5)c4n3)cc2)cc1` [Compound 3-9]: the values for the IC50 in assay [1] (setting [9]) and in assay [2] (setting [10]) were 12 µM and 20.6 µM, respectively.

Consider `Cc1ccc(S(=O)(=O)Nc2ccc(Nc3ccn4ncc(-c5cccc(N(C)C)c5)c4n3)cc2)cc1` [Compound 3-13], for which the concentration for half-maximal inhibition (IC50) in assay [1] (setting [9]) came out at 12.8 µM; in assay [2] (setting [10]), 29.3 µM; in assay [3] (IC50 (Kinase inhibitory activity), Table V, Pim-1 kinase, Kinase-Glo), 52.1 µM.

Regarding `CCN1CCC(CNc2ccc3ncc(-c4cccc(OC(F)(F)F)c4)n3n2)CC1` [Compound 7-39, N-((1-ethylpiperidin-4-yl)methyl)-3-(3-(trifluoromethoxy)phenyl)imidazo[1,2-b]pyridazin-6-amine], the IC50 in assay [1] (setting [6]) was determined as 5.82 µM; in assay [2] (setting [7]), 1.66 µM.

For the molecule `CCN1CCC(CNc2ccc3ncc(-c4cc(OC(F)(F)F)ccc4O)n3n2)CC1` [Compound 7-47, N-((1-ethylpiperidin-4-yl)methyl)-3-(2-hydroxy-5-(trifluoromethoxy)phenyl)-imidazo[1,2-b]pyridazin-6-amine], the IC50 in assay [1] (setting [6]) worked out at 57.4 µM; in assay [2] (setting [7]), 11.3 µM; in assay [3] (setting [8]) it was 0.31 µM.

Consider `CN1CCC(COc2ccc3ncc(-c4cccc(OC(F)(F)F)c4)n3n2)CC1` [Compound 7-33, 6-((1-methylpiperidin-4-yl)methoxy)-3-(3-(trifluoromethoxy)phenyl)imidazo[1,2-b]pyridazine], for which the IC50 in assay [1] (setting [6]) is 14.4 µM; in assay [2] (setting [7]) it was 5.99 µM; in assay [3] (setting [8]), 0.405 µM and 0.282 µM.

In the case of `CC[C@@H](CO)Nc1ccc2ncc(-c3cccc(OC(F)(F)F)c3)n2n1` [Compound 7-32, (S)-2-(3-(3-(trifluoromethoxy)phenyl)imidazo[1,2-b]pyridazin-6-ylamino)butan-1-ol], the IC50 in assay [1] (setting [6]) amounted to 29 µM; in assay [2] (setting [7]), 25.3 µM; in assay [2] (setting [4]), 20 µM; in assay [3] (setting [8]) it was 0.095 µM; in assay [3] (setting [5]), 1.55 µM.

As for `COc1ccc(OC(F)(F)F)cc1-c1cnc2ccc(NCC3CCN(C)CC3)nn12` [Compound 7-42, 3-(2-methoxy-5-(trifluoromethoxy)phenyl)-N-((1-methylpiperidin-4-yl)methyl)-imidazo[1,2-b]pyridazin-6-amine], the IC50 in assay [1] (setting [6]) was determined as 8.96 µM; in assay [2] (setting [7]), 9.6 µM.

Take `CN1CCC(CNc2ccc3ncc(-c4cc(OC(F)(F)F)ccc4O)n3n2)CC1` [Compound 7-43, 3-(2-hydroxy-5-(trifluoromethoxy)phenyl)-N-((1-methylpiperidin-4-yl)methyl)-imidazo[1,2-b]pyridazin-6-amine]: the results for the IC50 in assay [2] (setting [7]) and in assay [3] (setting [5]) were 4.9 µM and 1.1 µM, respectively.

Take `CC(C)N1CCC(CNc2ccc3ncc(-c4cccc(OC(F)(F)F)c4)n3n2)CC1` [Compound 7-35, N-((1-isopropylpiperidin-4-yl)methyl)-3-(3(trifluoromethoxy)phenyl)imidazo[1,2b]pyridazin-6-amine]: the IC50 in assay [1] (setting [6]) worked out at 12.8 µM; in assay [2] (setting [7]), 2.92 µM.

As for `COc1ccc(OC(F)(F)F)cc1-c1cnc2ccc(NCC3CCN(C(C)C)CC3)nn12` [Compound 7-48, N-((1-isopropylpiperidin-4-yl)methyl)-3-(2-methoxy-5-(trifluoromethoxy)phenyl)-imidazo[1,2-b]pyridazin-6-amine], the IC50 in assay [1] (setting [6]) came out at 17.7 µM; in assay [2] (setting [7]) it was 5.7 µM.

Consider `COc1ccc(OC(F)(F)F)cc1-c1cnc2ccc(NCCC3CCN(C)CC3)nn12` [Compound 7-44, 3-(2-methoxy-5-(trifluoromethoxy)phenyl)-N-(2-(1-methylpiperidin-4-yl)ethyl)-imidazo[1,2-b]pyridazin-6-amine], for which the values for the IC50 in assay [1] (setting [6]) and in assay [2] (setting [7]) were 17.7 µM and 5.7 µM, respectively.

As for `CCN1CCC(CNc2ccc3ncc(-c4cc(OC(F)(F)F)ccc4OC)n3n2)CC1` [Compound 7-46, N-((1-ethylpiperidin-4-yl)methyl)-3-(2-methoxy-5-(trifluoromethoxy)phenyl)-imidazol[1,2-b]pyridazin-6-amine], the IC50 came to 10.6 µM in assay [1] (setting [6]) and 5.3 µM in assay [2] (setting [7]).

Regarding `CCN1CCC(CNc2nn3c(-c4cccc(OC(F)(F)F)c4)cnc3cc2C)CC1` [Compound 7-38, N-((1-ethylpiperidin-4-yl)methyl)-7-methyl-3-((trifluoromethoxy)phenyl)imidazo [1,2-b]pyridazin-6-amine], the IC50 in assay [1] (setting [6]) worked out at 5.68 µM; in assay [2] (setting [7]), 1.41 µM.

For the molecule `FC(F)(F)Oc1cccc(-c2ccc3ncc(-c4cccc(OC(F)(F)F)c4)n3n2)c1` [Compound 7-13], the IC50 amounted to 63.2 µM in assay [1] (setting [6]) and 19.1 µM in assay [2] (setting [7]).

With `O=S1(=O)CCC(CNc2ccn3ncc(-c4cccc(Cl)c4)c3n2)CC1` [Compound 8-66], the IC50 in assay [3] (setting [11]) is 0.1 to 1 µM.

In the case of `C[C@]1(O)CC[C@H](Nc2ccc3ncc(-c4cccc(Cl)c4)n3n2)CC1` [Compound 8-36, 4-((3-(3-Chlorophenyl)imidazo[1,2-b]pyridazin-6-yl)amino)-1-methyl-trans-cyclohexanol], the IC50 in assay [3] (setting [11]) lay in the range of 0.1 to 1 µM.

Consider `O=S1(=O)CCN(c2ccc3ncc(-c4cccc(OC(F)(F)F)c4)n3n2)CC1` [Compound 8-15, 4-(3-(3-(Trifluoromethoxy)phenyl)imidazo[1,2-b]pyridazin-6-yl)thiomorpholine 1,1-dioxide], for which the IC50 in assay [3] (setting [11]) is 1 to 5 µM.

For `CC(C)N1CCC(CNc2ccc3ncc(-c4cc(OC(F)(F)F)ccc4O)n3n2)CC1` [Compound 7-49, N-((1-isopropylpiperidin-4-yl)methyl)-3-(2-hydroxy-5-(trifluoromethoxy)phenyl)-imidazo[1,2-b]pyridazin-6-amine], the IC50 in assay [3] (setting [8]) was 0.31 µM.

`NCC1CCN(c2ccc3ncc(-c4cccc(OC(F)(F)F)c4)n3n2)C(=O)C1` (centres unmarked) [Compound 8-24, 4-(Aminomethyl)-1-(3-(3-(trifluoromethoxy)phenyl)imidazo[1,2-b]pyridazin-6-yl)piperidin-2-one]: the 50% inhibitory concentration (IC50) in assay [3] (setting [11]) lay in the range of 0.01 to 0.1 µM.

Regarding `CN1CCC(CNc2ccn3ncc(-c4cccc(OC(F)(F)F)c4)c3n2)CC1` [Compound 8-67], in assay [3] (setting [11]), the IC50 is 0.01 to 0.1 µM.

Regarding `Clc1cccc(-c2cnn3ccc(NC4CCOCC4)nc23)c1` [Compound 8-65], in assay [3] (setting [11]), the IC50 fell in the range of 0.1 to 1 µM.

For `CC(C)(O)[C@H]1CC[C@H](Nc2ccc3ncc(-c4cccc(OC(F)(F)F)c4)n3n2)CC1` [Compound 8-10], the IC50 in assay [3] (setting [11]) was below 0.01 µM.

`CC[C@@H](N)COc1ccc2ncc(-c3cccc(OC(F)(F)F)c3)n2n1` [Compound 7-18, (R)-1-(3-(3-(trifluoromethoxy)phenyl)imidazo[1,2-b]pyridazin-6-yloxy)butan-2-amine]: the results for the IC50 in assay [2] (setting [7]) and in assay [3] (setting [8]) were 5.82 µM and 0.481 µM, respectively.

Turning to `FC1(F)CCC(CNc2ccc3ncc(-c4cccc(OC(F)(F)F)c4)n3n2)CC1` [Compound 8-17, N-((4,4-difluorocyclohexyl)methyl)-3-(3-(trifluoromethoxy)phenyl)imidazo[1,2-b]pyridazin-6-amine], the IC50 in assay [3] (setting [11]) lay in the range of 1 to 5 µM.

Turning to `Clc1cccc(-c2cnc3ccc(NC4CCOCC4)nn23)c1` [Compound 8-39], the IC50 in assay [3] (setting [11]) was below 0.01 µM.

With `CC(C)O[C@H]1CC[C@H](Nc2ccc3ncc(-c4cccc(OC(F)(F)F)c4)n3n2)CC1` [Compound 8-16, 4-(trans-Isopropoxycyclohexyl)-3-(3-(trifluoromethoxy)phenyl)imidazo[1,2-b]pyridazin-6-amine], the IC50 in assay [3] (setting [11]) fell in the range of 0.1 to 1 µM.

On to `CN1CCC(CCNc2ccc3ncc(-c4cc(OC(F)(F)F)ccc4O)n3n2)CC1` [Compound 7-45, 3-(2-Hydroxyl-5-(trifluoromethoxy)phenyl)-N-(2-(1-methylpiperidin-4-yl)ethyl)-imidazo[1,2-b]pyridazin-6-amine], for which the IC50 in assay [1] (setting [6]) came out at 52 µM; in assay [2] (setting [7]), 14.9 µM.

In the case of `OCCN1CCC(CNc2ccc3ncc(-c4cccc(OC(F)(F)F)c4)n3n2)CC1` [Compound 8-27, 2-(4-(((3-(3-(Trifluoromethoxy)phenyl)imidazo[1,2-b]pyridazin-6-yl)amino)methyl)piperidin-1-yl)ethanol], in assay [3] (setting [11]), the IC50 lay within 0.01 to 0.1 µM.

For the molecule `CO[C@H]1CC[C@H](Nc2ccn3ncc(-c4cccc(C(F)(F)F)c4)c3n2)CC1` [Compound 8-57, 4-(trans-Methoxycyclohexyl)-3-(3-(trifluoromethyl)phenyl)pyrazolo[1,5-a]pyrimidin-5-amine], the IC50 in assay [3] (setting [11]) is 0.01 to 0.1 µM.

Turning to `O[C@H]1C[C@H](CNc2ccc3ncc(-c4cccc(OC(F)(F)F)c4)n3n2)C1` [Compound 8-7, 3-(((3-(3-(Trifluoromethoxy)phenyl)imidazo[1,2-b]pyridazin-6-yl)amino)methyl)-trans-cyclobutanol], the IC50 in assay [3] (setting [11]) is 0.01 to 0.1 µM.

`C[C@]1(O)CC[C@H](Nc2ccn3ncc(-c4cccc(C(F)(F)F)c4)c3n2)CC1` [Compound 8-55, 1-Methyl-4-((3-(3-(trifluoromethyl)phenyl)pyrazolo[1,5-a]pyrimidin-5-yl)amino)-trans-cyclohexanol]: the IC50 in assay [3] (setting [11]) was in the range of 0.01 to 0.1 µM.
